In patent US20240165085A1, “ORAL FELINE FEED AND METHODS FOR CONTROLLING TICK INFESTATIONS IN A FELINE” (priority 2021, published 2024):

How the values were obtained:
Dermacentor variabilis [1] = experiment: Example 3: efficacy of afoxolaner and fluralaner liquid formulations per os in cats against Dermacentor variabilis; format: in vivo; details: treatment group 2, 0.075 mg/kg daily (Days 0-29), liquid formulation
Description: Efficacy of Various Formulations of Isoxazoline Administered per os, i.e. by mouth, to Cats for the Treatment and Control of Dermacentor variabilis.
Methods: A pool of 36 cats are to be preliminarily infested with ˜50 unfed adult D. variabilis ticks in order to produce cats that can suitably sustain a reliable infestation rate, defined as approximately 25% of attached ticks being live at the end of a 48-hour period. The 30 cats with the highest live attached tick counts are to be selected for inclusion in the study. The cats are to be randomly assigned to a single control group and 4 treatment groups with 6 cats per treatment group.
(§1) The cats are to be housed individually during the study period and are to be fed a commercial dry cat food ration with ad libitum access to water.
Each cat in a treatment group (test groups 2-5) is to receive by mouth, preferably in combination with feed, a liquid formulation of isoxazoline. The dosage is to be administered to the cats on each of days 0-29 according to TABLE 2.
(§2) Cats in the control group are not to receive isoxazoline or any other tick control treatment. Each cat in the treatment group is to be offered its daily ration (dry food) and the individual doses of liquid formulation are to be administered after the individual cat has eaten at least 25% of its total daily ration. […]

Dermacentor variabilis [2] = experiment: Example 1: efficacy of isoxazoline per os in cats against Dermacentor variabilis (attached tick comb counts); format: in vivo
Description: Efficacy of Isoxazoline Administered per os, i.e. by mouth, to Cats for the Treatment and Control of Dermacentor variabilis.
Methods: A pool of 14 cats are to be preliminarily infested with ˜50 unfed adult D. variabilis ticks in order to produce cats that can suitably sustain a reliable infestation rate, defined as approximately 25% attached ticks being live at the end of a 48-hour period. The 12 cats with the highest live attached tick counts are to be selected for inclusion in the study. The cats are to be divided into a control group and a treatment group with 6 cats in each group.
as §1
(§3) Each cat in the treatment group is to receive by mouth, preferably in combination with feed, a liquid formulation of isoxazoline. The dosage of 1.125 mg/kg is to be administered to the cats on each of days 0-29.
as §2, with “ration. After receiving the dose of isoxazoline, the cats are to be allowed to continue eating. This mimics incorporating the isoxazoline in feed.” for “ration.”

[3] = Example 1: average plasma concentration of isoxazoline in cats, daily oral dosing; format: in vivo, cat; details: 1.125 mg/kg daily
Description: as §3
Using the same study method as described above, blood is to be drawn at 72, 168, 336, 504, 720 and 888 hours after the initial dose of isoxazoline is administered. The average concentration of isoxazoline in the blood can then be determined.

[4] = Example 4: plasma concentration of isoxazoline in cats given medicated feed; format: in vivo, cat; details: medicated feed dosed at 1.5 mg/kg, five different feed formulations, Day 0 to Day 30
Description: Plasma Concentration of Isoxazoline in Cats when Isoxazoline is Administered in a Medicated Feed Dosed at 1.5 mg/kg of the Cat's Weight.
Methods: A pool of 30 cats are to be assigned to 5 groups of 6 cats per group by weight to minimize variation between and within the groups. Each group will be given a different feed formulation containing isoxazoline and the blood level of isoxazoline over the one month period following the single daily dose will be determined.
(§4) The cats are to be housed individually during the study period and are to have ad libitum access to water.
There is to be an initial acclimation period of at least 4 days during which cats are to be transitioned from a standard certified commercial cat feed to an unmedicated version of the daily cat feed. During the acclimation period, the cats are to be allowed 15 minutes/day to consume the feed.
Each medicated feed formulation should be able to deliver approximately 14.1 g/kg of daily feed containing isoxazoline. The amount of medicated feed for each cat is to be determined according to the most recent body weight of the cat prior to the first day (Day 0) of the study. Each medicated feed is to be provided for 15 minutes daily from Day 0 up to and including Day 30. Any uneaten medicated feed remaining after each daily 15 minute timed offering period is to be removed, weighed and the amount recorded. […]

Dermacentor variabilis [5] = experiment: Example 5: efficacy of isoxazoline in medicated feed in cats against Dermacentor variabilis; format: in vivo; details: 1 mg/kg, days 0-29, by day 14
Description: (§5) Efficacy of Isoxazoline when Isoxazoline is Administered in a Medicated Feed for the Treatment and Control of Dermacentor variabilis.
Methods: A pool of 24 cats are to be preliminarily infested with ˜50 unfed adult D. variabilis ticks in order to produce cats that can suitably sustain a reliable infestation rate, defined as approximately 25% of attached ticks being live at the end of a 48-hour period. The 18 cats with the highest live attached tick counts are to be randomly assigned to a single control group (Group 1) and 2 different medicated feed treatment groups (Groups 2 and 3) with 6 cats per group. The remaining 6 cats are to be assigned to a final medicated feed treatment group (Group 4).
as §4
(§6) Each cat in a treatment group (Groups 2-4) is to receive a medicated daily feed from study days 0-29. Each medicated daily feed (Groups 2-4) is to be offered to the cats for 1 hour on each of days 0-29 according to test groups in TABLE 3.
Cats in the control group are not to receive isoxazoline or any other tick control treatment. […]

[6] = Example 5: plasma concentration of isoxazoline in cats given medicated daily feed; format: in vivo, cat
Description: as §6
Using the same study method as described above, blood is to be drawn at day 0 (day of the first administration of medicated feed) and days 2, 4, 7, 10, 14, 21 and 30 after the initial dose of isoxazoline is administered on day 0. The average concentration of isoxazoline in the blood for different dosage levels can then be determined.

Dermacentor variabilis [7] = experiment: Example 6: efficacy of Mivorilaner in medicated feed in cats against Dermacentor variabilis (FIG. 1); format: in vivo; details: days 0-29, within 16 days
Description: FIG. 1. A graph of the arithmetic mean efficacy for treatment Group 2 (stars) and Group 3 (horizontal hash). Percent efficacy=[AM fleas CONTROL−AM fleas TREATED]/AM fleas CONTROL. Efficacy measured at 2, 16, 27, 30, and 37 days after Initial Treatment, with either 0.75 mg of Mivorilaner/kg (Group 2) or 1.5 mg of Mivorilaner/kg (Group 3).
as §5
Methods: A pool of cats are to be preliminarily infested with ˜100 unfed adult C. felis fleas in order to produce cats that can suitably sustain a reliable infestation rate, defined as approximately 50% retention of live fleas at the end of a 48-hour period. The cats with the highest live flea counts are to be randomly assigned to a single control group (Group 1) and 2 medicated feed treatment groups with 4 cats per group. The cats in groups 2 and 3 will receive Mivorilaner.
as §4
Each cat in a treatment group (Groups 2 and 3) is to receive a medicated daily feed from study days 0-29 according to TABLE 4.
The cats are to be fasted overnight prior to each daily treatment. […]

Structure (SMILES) | efficacy (Dermacentor variabilis [1]; by day 14) | efficacy (Dermacentor variabilis [1]; by day 21) | reduction in attached tick counts over the control group (Dermacentor variabilis [2]; 1.125 mg/kg by mouth daily days 0-29, within 7 days) | reduction in attached tick counts over the control group (Dermacentor variabilis [2]; 1.125 mg/kg by mouth daily days 0-29, within 14 days) [%] | average plasma concentration ([3]; day 3) | average plasma concentration ([3]; day 21) | average plasma concentration ([3]; day 37, approximately 8 days after the final dose) | mean plasma concentrations [4] | efficacy (Dermacentor variabilis [5]; treatment group 2, medicated daily feed) | efficacy (Dermacentor variabilis [5]; treatment group 3, medicated daily feed) | plasma concentrations relative to treatment groups 2 and 3 ([6]; treatment group 4, 3 mg/kg daily, versus groups 2 and 3, 1 mg/kg daily) | plasma concentrations, comparison of feed formulations ([6]; treatment groups 2 and 3, 1 mg/kg daily, different feed formulations) | efficacy (percent reduction in attached live and moribund tick counts) (Dermacentor variabilis [7]; treatment group 2, 0.75 mg/kg daily in wet cat food) [%] | efficacy (percent reduction in attached live and moribund tick counts) (Dermacentor variabilis [7]; treatment group 3, 1.5 mg/kg daily in wet cat food) [%]
O=C(CNC(=O)c1ccc(C2=NOC(c3cc(Cl)cc(C(F)(F)F)c3)(C(F)(F)F)C2)c2ccccc12)NCC(F)(F)F (centres unmarked) [Afoxolaner, 4-{5-[3-chloro-5-(trifluoromethyl)phenyl]-5-(trifluoromethyl)-4,5-dihydroisoxazol-3-yl}-N-{2-oxo-2-[(2,2,2-trifluoroethyl)amino]ethyl}naphthalene-1-carboxamide] | greater than 80% | greater than 90% | – | – | – | – | – | – | – | – | – | – | – | –
O=C(CNC(=O)c1sc(C2=NO[C@@](c3cc(Cl)c(F)c(Cl)c3)(C(F)(F)F)C2)c2c1CCC2)NCC(F)F [mivorilaner, 3-[(5S)-5-(3,5-dichloro-4-fluorophenyl)-5-(trifluoromethyl)-4,5-dihydroisoxazol-3-yl]-N-[2-[(2,2-difluoroethyl)amino]-2-oxoethyl]-5,6-dihydro-4H-cyclopenta[c]thiophene-1-carboxamide] | – | – | at least 60% | 90 | about 1011 ng/mL | about 4088 | about 3025 ng/mL | consistent with those achieved in Examples 1 and 2 | greater than 95% | greater than 95% | 2.5-4 times higher | consistent between treatment groups 2 and 3 | 100 | 100
